Drawing on patent US11040035B2, “3-oxo-2,6-diphenyl-2,3-dihydropyridazine-4-carboxamides” (BAYER PHARMA AKTIENGESELLSCHAFT, priority 2016, dated 2021), this text covers IC50 for 22 compounds.

Test [1] has as its target T1, AHR (Homo sapiens, UniProt P35869).
T1 sequence (P35869 11-848): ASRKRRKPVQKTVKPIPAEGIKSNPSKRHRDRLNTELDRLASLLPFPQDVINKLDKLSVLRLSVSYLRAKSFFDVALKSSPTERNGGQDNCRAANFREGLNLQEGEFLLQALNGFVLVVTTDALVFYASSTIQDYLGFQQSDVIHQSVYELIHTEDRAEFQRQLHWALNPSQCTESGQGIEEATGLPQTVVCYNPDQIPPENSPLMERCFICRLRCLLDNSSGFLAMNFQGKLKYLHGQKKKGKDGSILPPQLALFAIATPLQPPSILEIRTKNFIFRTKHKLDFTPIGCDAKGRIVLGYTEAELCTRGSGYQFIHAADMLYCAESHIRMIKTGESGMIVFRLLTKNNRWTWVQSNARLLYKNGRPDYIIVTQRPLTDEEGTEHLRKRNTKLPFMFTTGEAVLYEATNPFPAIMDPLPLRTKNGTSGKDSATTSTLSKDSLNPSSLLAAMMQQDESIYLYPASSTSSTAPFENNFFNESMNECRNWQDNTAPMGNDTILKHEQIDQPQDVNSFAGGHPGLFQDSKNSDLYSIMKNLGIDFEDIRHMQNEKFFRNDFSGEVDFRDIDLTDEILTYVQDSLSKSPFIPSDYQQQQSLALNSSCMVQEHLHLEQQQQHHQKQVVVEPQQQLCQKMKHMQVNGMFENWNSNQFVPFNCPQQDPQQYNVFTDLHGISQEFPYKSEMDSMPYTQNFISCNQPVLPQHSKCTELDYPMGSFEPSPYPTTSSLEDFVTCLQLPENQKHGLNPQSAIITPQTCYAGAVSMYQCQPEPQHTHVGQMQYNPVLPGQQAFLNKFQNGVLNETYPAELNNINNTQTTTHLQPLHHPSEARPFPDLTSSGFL
As to the kind of experiment: In vitro assay 1: antagonism in human cell line (transactivation assay, kynurenic acid prestimulated). The following applies: Assay 1: AHR-luc Hum Antagonism IC50 [M], 150 μM kynurenic acid, 20 hours, firefly luciferase.

The target of test [2] is T1, AHR. As to the kind of experiment: In vitro assay 2: agonism in human cell line (transactivation assay).
Experimental: Transactivation Assay in Human Cell Line (In Vitro Assays 1 and 2)
Transactivation assays were carried out in U87 glioblastoma cells (ATCC) endogenously expressing AHR. In addition the cells were stably transfected with an AHR inducible firefly luciferase reporter gene construct that carried AHR-binding sites (DRE) in its promoter and a renilla reporter gene construct with constitutively active promoter.
In Vitro Assay 2: Agonism in Human Cell Line
Cells in medium (tryptophan free RPMI, 1% FCS, 2 mM Glutamine) were grown for 20 hours in absence (negative control) or presence of increasing concentrations of test compounds (typical dilutions: 72 pmol/L, 0.25 nmol/L, 0.89 nmol/L; 3.1 nmol/L, 11 nmol/L, 38 nmol/L, 130 nmol/L, 470 nmol/L, 1.6 μmol/L, 5.7 μmol/L and 20 μmol/L in duplicates). As positive activation control cells were incubated with 300 μM kynurenic acid. Normalization was done by positive and negative controls.
Firefly luciferase activity was determined by the SteadyGlo Luciferase Assay System (Promega, #2520).
Setting [3] is: Assay 2: AHR-luc Hum Agonism IC50 [M], no kynurenic acid, 20 hours, firefly luciferase.
Where [4] appears, read: read-out: Assay 2: AHR-luc Hum Agonism IC50, no kynurenic acid, 20 hours, firefly luciferase.

Structures are written as SMILES.

For orientation: IC50 means the concentration that inhibits the measured activity by half. In the case of `Cc1ccc(-c2cc(C(=O)NCC(C)O)c(=O)n(-c3cccc(F)c3)n2)cc1` (single isomer, unassigned; enantiomer 1) [Example 14, 2-(3-Fluorophenyl)-N-(2-hydroxypropyl)-6-(4-methylphenyl)-3-oxo-2,3-dihydropyridazine-4-carboxamide, Enantiomer 1], the IC50 against AHR [1] is 1.75e-07 M; against AHR [2] (setting [3]) it was greater than 2e-05 M.
The matching figures for `C[C@H](NC(=O)c1cc(-c2ccc(OC(F)F)cc2)nn(-c2cccc(F)c2)c1=O)C(C)(C)O` [Example 386, 6-[4-(difluoromethoxy)phenyl]-2-(3-fluorophenyl)-N-[(2S)-3-hydroxy-3-methylbutan-2-yl]-3-oxo-2,3-dihydropyridazine-4-carboxamide]: 6.5e-08 M and greater than 2e-05 M.
On to `CC(O)CCNC(=O)c1cc(-c2ccc(Cl)cc2)nn(-c2cccc(F)c2)c1=O` (racemic) [Example 203, 6-(4-Chlorophenyl)-2-(3-fluorophenyl)-N-[(3RS)-3-hydroxybutyl]-3-oxo-2,3-dihydropyridazine-4-carboxamide], for which the IC50 against AHR [1] was 2.13e-07 M; on AHR [2] (setting [3]), greater than 2e-05 M.
Consider `CC(NC(=O)c1cc(-c2ccc(Cl)cc2)nn(-c2cccc(F)c2)c1=O)C(O)CO` (single isomer, unassigned) [Example 347, 6-(4-chlorophenyl)-N-(3,4-dihydroxybutan-2-yl)-2-(3-fluorophenyl)-3-oxo-2,3-dihydropyridazine-4-carboxamide], for which the values for the IC50 against AHR [1] and at AHR [2] (setting [4]) were 1.69e-07 M and greater than 2e-05 M, respectively.
Turning to `O=C(NC(CO)CCO)c1cc(-c2ccc(Cl)cc2)nn(-c2cccc(F)c2)c1=O` (single isomer, unassigned; (+)) [Example 225, (+)-6-(4-Chlorophenyl)-N-(1,4-dihydroxybutan-2-yl)-2-(3-fluorophenyl)-3-oxo-2,3-dihydropyridazine-4-carboxamide], the IC50 against AHR [1] is 2.41e-07 M; against AHR [2] (setting [3]) it was greater than 2e-05 M.
Taken in the same sequence, the figures for `C[C@H](O)[C@H](C)NC(=O)c1cc(-c2ccc(OC(F)F)cc2)nn(-c2cccc(F)c2)c1=O` (relative stereo) [Example 143, rel-6-[4-(Difluoromethoxy)phenyl]-2-(3-fluorophenyl)-N-[(2S,3S)-3-hydroxybutan-2-yl]-3-oxo-2,3-dihydropyridazine-4-carboxamide] were 8.07e-08 M and greater than 2e-05 M.
For `Cc1cccc(-n2nc(-c3ccc(Cl)cc3)cc(C(=O)NCC(O)C(F)(F)F)c2=O)c1` (single isomer, unassigned) [Example 368, 6-(4-chlorophenyl)-2-(3-methylphenyl)-3-oxo-N-(3,3,3-trifluoro-2-hydroxypropyl)-2,3-dihydropyridazine-4-carboxamide], the IC50 against AHR [1] was 1.86e-06 M; on AHR [2] (setting [4]), greater than 2e-05 M.
Taken in the same sequence, the figures for `O=C(NC(CO)C1CC1)c1cc(-c2ccc(Cl)cc2)nn(-c2cccc(F)c2)c1=O` (single isomer, unassigned; (+)) [Example 195, (+)-6-(4-Chlorophenyl)-N-(1-cyclopropyl-2-hydroxyethyl)-2-(3-fluorophenyl)-3-oxo-2,3-dihydropyridazine-4-carboxamide] were 2.5e-07 M and greater than 2e-05 M.
Turning to `COc1ccc(-c2cc(C(=O)NC(CO)C(F)(F)F)c(=O)n(-c3cccc(F)c3)n2)cc1` (centres unmarked) [Example 100, 2-(3-Fluorophenyl)-6-(4-methoxyphenyl)-3-oxo-N-(1,1,1-trifluoro-3-hydroxypropan-2-yl)-2,3-dihydropyridazine-4-carboxamide], the IC50 against AHR [1] is 1.09e-08 M; on AHR [2] (setting [3]) it was greater than 2e-05 M.
As to `O=C(N[C@H]1CC[C@@H]1O)c1cc(-c2ccc(Cl)cc2)nn(-c2cccc(F)c2)c1=O` (single isomer, unassigned) [Example 335, (−)-6-(4-chlorophenyl)-2-(3-fluorophenyl)-N-(trans-2-hydroxycyclobutyl)-3-oxo-2,3-dihydropyridazine-4-carboxamide], the values for the concentration for half-maximal inhibition (IC50) against AHR [1] and against AHR [2] (setting [3]) were 4.05e-07 M and greater than 2e-05 M, respectively.
With `Cc1ccc(-c2cc(C(=O)NCC(O)C(C)C)c(=O)n(-c3cc(F)cc(F)c3)n2)cc1` (centres unmarked) [Example 56, 2-(3,5-Difluorophenyl)-N-(2-hydroxy-3-methylbutyl)-6-(4-methylphenyl)-3-oxo-2,3-dihydropyridazine-4-carboxamide], the results for the IC50 at AHR [1] and on AHR [2] (setting [3]) were 4e-08 M and greater than 2e-05 M, respectively.
`O=C(NC(CO)C1CCOC1)c1cc(-c2ccc(OC(F)F)cc2)nn(-c2cccc(F)c2)c1=O` (single isomer, unassigned) [Example 146, 6-[4-(Difluoromethoxy)phenyl]-2-(3-fluorophenyl)-N-{(2-hydroxy-1-tetrahydrofuran-3-yl)ethyl}-3-oxo-2,3-dihydropyridazine-4-carboxamide]: the IC50 at AHR [1] was 2.94e-07 M; on AHR [2] (setting [4]), greater than 2e-05 M.
In the case of `C[C@H](O)CNC(=O)c1cc(-c2ccc(Cl)cc2)nn(-c2cccc(F)c2)c1=O` [Example 36, 6-(4-Chlorophenyl)-2-(3-fluorophenyl)-N-[(2S)-2-hydroxypropyl]-3-oxo-2,3-dihydropyridazine-4-carboxamide], the IC50 against AHR [1] was 2.95e-07 M; on AHR [2] (setting [3]), greater than 2e-05 M.
On AHR [2] (setting [3]), `CC(NC(=O)c1cc(-c2ccc(Cl)cc2)nn(-c2cccc(F)c2)c1=O)C(O)C(F)(F)F` (mixture of isomers) [Example 217, Isomeric mixture no. 1 of 6-(4-chlorophenyl)-2-(3-fluorophenyl)-3-oxo-N-(4,4,4-trifluoro-3-hydroxybutan-2-yl)-2,3-dihydropyridazine-4-carboxamide] had a concentration for half-maximal inhibition (IC50) greater than 2e-05 M.
The same measure, in the same setting: for `O=C(NC(CO)C(F)(F)F)c1cc(-c2ccc(C(F)(F)F)cc2)nn(-c2cccc(F)c2)c1=O` (racemic) [Example 266, 2-(3-Fluorophenyl)-3-oxo-N-[(2RS)-1,1,1-trifluoro-3-hydroxypropan-2-yl]-6-[4-(trifluoromethyl)phenyl]-2,3-dihydropyridazine-4-carboxamide] the value was 7.84e-07 M.
Take `CC(C)[C@@H](CO)NC(=O)c1cc(-c2ccc(C(F)(F)F)cc2)nn(-c2cccc(F)c2)c1=O` [Example 239, 2-(3-Fluorophenyl)-N-[(2S)-1-hydroxy-3-methylbutan-2-yl]-3-oxo-6-[4-(trifluoromethyl)phenyl]-2,3-dihydropyridazine-4-carboxamide]: the half-inhibitory concentration (IC50) at AHR [2] (setting [3]) is greater than 2e-05 M.
Same read-out and setting: the same measure for `CC(C)[C@H](CO)NC(=O)c1cc(-c2ccc(C(F)(F)F)cc2)nn(-c2cccc(F)c2)c1=O` [Example 240, 2-(3-Fluorophenyl)-N-[(2R)-1-hydroxy-3-methylbutan-2-yl]-3-oxo-6-[4-(trifluoromethyl)phenyl]-2,3-dihydropyridazine-4-carboxamide]: 6.56e-08 M.
The compound `O=C(N[C@@H]1CCC[C@@H]1O)c1cc(-c2ccc(Cl)cc2)nn(-c2cccc(F)c2)c1=O` [Example 133, 6-(4-Chlorophenyl)-2-(3-fluorophenyl)-N-[(1R,2S)-2-hydroxycyclopentyl]-3-oxo-2,3-dihydropyridazine-4-carboxamide] showed an IC50 at AHR [2] (setting [3]) greater than 2e-05 M.
The same measure, in the same setting: for `CC(O)C(NC(=O)c1cc(-c2ccc(C(F)(F)F)cc2)nn(-c2cccc(F)c2)c1=O)C(F)(F)F` (racemic) [Example 260, 2-(3-Fluorophenyl)-3-oxo-N-[(2RS,3RS)-1,1,1-trifluoro-3-hydroxybutan-2-yl]-6-[4-(trifluoromethyl)phenyl]-2,3-dihydropyridazine-4-carboxamide or 2-(3-fluorophenyl)-3-oxo-N-[(2SR,3RS)-1,1,1-trifluoro-3-hydroxybutan-2-yl]-6-[4-(trifluoromethyl)phenyl]-2,3-dihydropyridazine-4-carboxamide] the value was greater than 2e-05 M.
As for `CC(CO)NC(=O)c1cc(-c2ccc(Cl)cc2)nn(-c2cccc(Cl)c2)c1=O` (centres unmarked) [Example 65, 2-(3-Chlorophenyl)-6-(4-chlorophenyl)-N-(1-hydroxypropan-2-yl)-3-oxo-2,3-dihydropyridazine-4-carboxamide], the midpoint of inhibition against AHR [1], the IC50, lay at 3e-07 M.
The same measure, in the same setting: the same measure for `Cc1ccc(-c2cc(C(=O)N[C@@H](CO)C(C)C)c(=O)n(-c3cccc(F)c3)n2)cc1C` [Example 84, 6-(3,4-dimethylphenyl)-2-(3-fluorophenyl)-N-[(2R)-1-hydroxy-3-methylbutan-2-yl]-3oxo-2,3-dihydropyridazine-4-carboxamide]: 3.66e-06 M.
For the compound `CC(C)(O)C(NC(=O)c1cc(-c2ccc(C(F)(F)F)cc2)nn(-c2cccc(F)c2)c1=O)C(F)(F)F` (single isomer, unassigned; (+)) [Example 395, (+)-2-(3-fluorophenyl)-3-oxo-N-(1,1,1-trifluoro-3-hydroxy-3-methylbutan-2-yl)-6-[4-(trifluoromethyl)phenyl]-2,3-dihydropyridazine-4-carboxamide], on AHR [2] (setting [4]), the IC50 is greater than 2e-05 M.
